Usually GI50 stands for the concentration that inhibits growth by half. Low readings indicate more potent growth inhibition, high ones less potent growth inhibition. As usually defined, the Kd is a measure of binding affinity in units of concentration.

Seven molecules from ChEMBL document CHEMBL1152722, “5-Aryl-4-(5-substituted-2,4-dihydroxyphenyl)-1,2,3-thiadiazoles as inhibitors of Hsp90 chaperone” (Bioorg Med Chem Lett, 2009) can be followed below.

The test system of one assay is U2OS. Briefly: Growth inhibition of human U2OS cells after 72 hrs by XTT assay. The class given is functional. (Tetrazolium dyes change colour on reduction, which living cells bring about.)
The subject of another assay is HeLa. Briefly: Growth inhibition of human HeLa cells after 72 hrs by XTT assay. The format is functional.
Assay [1] concerns the target Heat shock protein HSP 90-alpha (Homo sapiens, UniProt P07900).
Description: Binding affinity to human full length Histidine6-tagged Hsp90alpha expressed in Escherichia coli BL21 DE3 by ITC
The target in a further assay is Heat shock protein HSP90 (Homo sapiens, UniProt P07900+P08238).

Each structure is given as a SMILES string.

Description for Heat shock protein HSP90: Binding affinity to human Histidine6-tagged Hsp90alpha N-terminal domain expressed in Escherichia coli BL21 DE3 by ITC

Turning to `COc1ccc(-c2snnc2-c2cc(Cl)c(O)cc2O)cc1`, the GI50 turned out to be 6 µM in the assay with U2OS and 2.5 µM with HeLa.
In the same order, the values of `Cc1ccc(-c2snnc2-c2cc(Cl)c(O)cc2O)cc1` are 7.1 µM and 3.3 µM.
In the case of `COc1ccc(-c2snnc2-c2cc(Cl)c(O)c(Cl)c2O)cc1`, the dissociation constant (Kd) (in assay [1]; at Heat shock protein HSP90) was greater than 20 µM throughout.
`CCOc1ccc(-c2snnc2-c2cc(CC)c(O)cc2O)cc1`: the GI50 came to 0.69 µM with U2OS and 0.7 µM in the assay with HeLa.
In the same order, the values of `COc1ccc(-c2snnc2-c2cc(Cl)c(O)cc2O)cc1OC` are 9.9 µM and 4.2 µM.
With `CCOc1ccc(-c2snnc2-c2cc(CC)c(O)c(Cl)c2O)cc1`, the GI50 was determined as 28 µM with U2OS and 19 µM with HeLa. Besides, the Kd (in assay [1]; at Heat shock protein HSP90) was greater than 20 µM throughout.
On to `CCOc1ccc(-c2snnc2-c2cc(Cl)c(O)cc2O)cc1`, for which the GI50 in the assay on U2OS stood at 6.9 µM; with HeLa it was 3.6 µM.
